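How tested: cells in 96-well plates exposed to compound for 48 hours at five concentrations. The concentration for 50% growth inhibition is given as GI50.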 Activity calls are given as the source filed them. No stated cut-off is given here; in the data, active = GI50 up to about 1.1 µM and inactive = higher.
Tests used:
Test in all cases: DTP human tumour cell line panel, 48 h
SNB-19 = tested on: SNB-19
SR = tested on: SR
HCT-116 = tested on: HCT-116
OVCAR-5 = tested on: OVCAR-5
CCRF-CEM = tested on: CCRF-CEM
SNB-75 = tested on: SNB-75
NCI-H226 = tested on: NCI-H226
A498 = tested on: A498
HCC 2998 = tested on: HCC 2998
UACC-62 = tested on: UACC-62
HT-29 = tested on: HT-29
SF-295 = tested on: SF-295
A549 = tested on: A549
CAKI-1 = tested on: CAKI-1
COLO 205 = tested on: COLO 205

Structure (SMILES) | GI50 (SNB-19) | GI50 (SR) | GI50 (HCT-116) | GI50 (OVCAR-5) | GI50 (CCRF-CEM) | GI50 (SNB-75) | GI50 (NCI-H226) | GI50 (A498) | GI50 (HCC 2998) | GI50 (UACC-62) | GI50 (HT-29) | GI50 (SF-295) | GI50 (A549) | GI50 (CAKI-1) | GI50 (COLO 205)
CC1=C(CO)C(=O)OC(C(C)C2CCC3C4CC5OC56C(O)C(N5CC5)=CC(=O)C6(C)C4CCC23C)C1 (stereo unspecified) | 2.04 µM (inactive) | 2.77 µM (inactive) | 3.02 µM (inactive) | 17.4 µM (inactive) | 2.61 µM (inactive) | 4.01 µM (inactive) | 14.2 µM (inactive) | 2.11 µM (inactive) | 2.93 µM (inactive) | 10.5 µM (inactive) | 3.94 µM (inactive) | 16.5 µM (inactive) | 10.4 µM (inactive) | – | –
CCOC(=O)CC(=O)ON(C)C(C)=O | > 100 µM (inactive) | > 100 µM (inactive) | > 100 µM (inactive) | > 100 µM (inactive) | > 100 µM (inactive) | – | > 100 µM (inactive) | > 100 µM (inactive) | > 100 µM (inactive) | > 100 µM (inactive) | > 100 µM (inactive) | > 100 µM (inactive) | > 100 µM (inactive) | > 100 µM (inactive) | > 100 µM (inactive)
C[Si](C)(C)C(Sc1ccccc1)(Sc1ccccc1)Sc1ccccc1 | > 100 µM (inactive) | 35.7 µM (inactive) | 60.3 µM (inactive) | – | 24 µM (inactive) | 40.5 µM (inactive) | – | 76.9 µM (inactive) | 94 µM (inactive) | 26.4 µM (inactive) | – | 74.1 µM (inactive) | 39.3 µM (inactive) | > 100 µM (inactive) | 62.2 µM (inactive)
Cc1cccc(NC(=O)c2c(N)[n+]([O-])c3ccccc3[n+]2[O-])c1 | 15.8 µM (inactive) | 10.9 µM (inactive) | 7.69 µM (inactive) | 26.7 µM (inactive) | 4.68 µM (inactive) | 13 µM (inactive) | 5.66 µM (inactive) | 16.1 µM (inactive) | – | – | 13.7 µM (inactive) | 10.9 µM (inactive) | 16.1 µM (inactive) | 13.9 µM (inactive) | 13.3 µM (inactive)
CCCCN(CCCC)c1c([N+](=O)[O-])c(=O)nc2ccccn12 | 72.9 µM (inactive) | 38.5 µM (inactive) | 38.9 µM (inactive) | 99.3 µM (inactive) | 44.6 µM (inactive) | 30.8 µM (inactive) | 75.3 µM (inactive) | 22.3 µM (inactive) | – | 36.7 µM (inactive) | 38.1 µM (inactive) | – | 33.7 µM (inactive) | > 10 µM (inactive) | 45.5 µM (inactive)
N=C(N)NS(=O)(=O)c1ccc(NCCc2c3ccccc3nc3ccccc23)cc1 | > 100 µM (inactive) | 33.9 µM (inactive) | 41.9 µM (inactive) | > 100 µM (inactive) | 94 µM (inactive) | > 100 µM (inactive) | > 100 µM (inactive) | – | > 100 µM (inactive) | – | 64.4 µM (inactive) | > 100 µM (inactive) | > 100 µM (inactive) | 87.1 µM (inactive) | 76 µM (inactive)
CNC(=S)NC(=S)N(C)C | > 100 µM (inactive) | 3.44 µM (inactive) | 4.71 µM (inactive) | – | – | > 100 µM (inactive) | > 100 µM (inactive) | > 100 µM (inactive) | > 100 µM (inactive) | – | – | > 100 µM (inactive) | 7.67 µM (inactive) | > 100 µM (inactive) | –
O=C(CC1(O)C(=O)Nc2c(Cl)cc(Cl)cc21)c1ccc2ccccc2c1 (stereo unspecified) | 11.4 µM (inactive) | – | – | 16.6 µM (inactive) | 10.2 µM (inactive) | 3.99 µM (inactive) | – | 11.3 µM (inactive) | > 10 µM (inactive) | 3.55 µM (inactive) | 5.25 µM (inactive) | 7.93 µM (inactive) | 5.2 µM (inactive) | 5.7 µM (inactive) | 8.79 µM (inactive)
CCC12CCCN(Cc3ccccc3)C1c1c(n(C)c3ccccc13)C(CO)C2 (stereo unspecified) | 55.5 µM (inactive) | 25.5 µM (inactive) | 14 µM (inactive) | 10.5 µM (inactive) | 83 µM (inactive) | – | 34.3 µM (inactive) | – | 58.1 µM (inactive) | 51.3 µM (inactive) | 17.9 µM (inactive) | 26.9 µM (inactive) | 81.8 µM (inactive) | 92.7 µM (inactive) | 38 µM (inactive)
Cc1cc(C)nc(NS(=O)(=O)c2ccc(NC(=O)c3ccc(Cl)c4c(Nc5ccc(S(=O)(=O)N=C(N)N)cc5)c5ccccc5nc34)cc2)n1 | > 100 µM (inactive) | – | 24 µM (inactive) | > 100 µM (inactive) | – | > 100 µM (inactive) | > 100 µM (inactive) | > 100 µM (inactive) | 29.1 µM (inactive) | 36.3 µM (inactive) | 16.4 µM (inactive) | > 100 µM (inactive) | > 100 µM (inactive) | > 100 µM (inactive) | 61.5 µM (inactive)
COC(=O)C1=C(C(=O)OC)C2(OC(C)=O)c3ccccc3-c3ccccc3C12 (stereo unspecified) | > 40.7 µM (inactive) | 2.33 µM (inactive) | 3.66 µM (inactive) | 14.2 µM (inactive) | 0.733 µM (active) | 11.7 µM (inactive) | 16.5 µM (inactive) | 18.1 µM (inactive) | 16.7 µM (inactive) | 11 µM (inactive) | 5.47 µM (inactive) | 17.9 µM (inactive) | 17.3 µM (inactive) | 2.16 µM (inactive) | 1.63 µM (inactive)

From ChEMBL document CHEMBL1201862, “PubChem BioAssay data set” (2004)
